ChEMBL document CHEMBL1201862, “PubChem BioAssay data set” (2004)
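Values below derive from 48-hour exposures of cells grown in 96-well plates, with endpoints linearly interpolated between the two concentrations bracketing the appropriate inhibition level. GI50 is the concentration that inhibits growth by half.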 The source made the active and inactive calls. Cut-off read from the data, not from the text of the source: active = GI50 up to about 1.1 µM and inactive = higher.

Assays:
Experiment in all cases: NCI anticancer screen, dose series, 48 h
HT-29 = tested on: HT-29
T47D = tested on: T47D
BT-549 = tested on: BT-549
OVCAR-3 = tested on: OVCAR-3
KM12 = tested on: KM12
RPMI-8226 = tested on: RPMI-8226
DU-145 = tested on: DU-145
NCI-H522 = tested on: NCI-H522
SW-620 = tested on: SW-620
SK-OV-3 = tested on: SK-OV-3
786-0 = tested on: 786-0
UACC-62 = tested on: UACC-62
ACHN = tested on: ACHN
HL-60 = tested on: HL-60
MCF7 = tested on: MCF7
UO-31 = tested on: UO-31
SR = tested on: SR
Malme-3M = tested on: Malme-3M
OVCAR-4 = tested on: OVCAR-4
CCRF-CEM = tested on: CCRF-CEM

Compound | GI50 (HT-29) | GI50 (T47D) | GI50 (BT-549) | GI50 (OVCAR-3) | GI50 (KM12) | GI50 (RPMI-8226) | GI50 (DU-145) | GI50 (NCI-H522) | GI50 (SW-620) | GI50 (SK-OV-3) | GI50 (786-0) | GI50 (UACC-62) | GI50 (ACHN) | GI50 (HL-60) | GI50 (MCF7) | GI50 (UO-31) | GI50 (SR) | GI50 (Malme-3M) | GI50 (OVCAR-4) | GI50 (CCRF-CEM)
O=C(Nc1cccc(F)c1)c1cc2ccc(O)cc2o/c1=N\c1cccc(F)c1 | > 100 µM (inactive) | 3.27 µM (inactive) | 4.82 µM (inactive) | 4.91 µM (inactive) | 6.95 µM (inactive) | 2.87 µM (inactive) | 4.27 µM (inactive) | 2.99 µM (inactive) | 4.27 µM (inactive) | 13.2 µM (inactive) | 7.85 µM (inactive) | 5.57 µM (inactive) | 4.88 µM (inactive) | 2.65 µM (inactive) | 3.58 µM (inactive) | 4.36 µM (inactive) | 4.5 µM (inactive) | 4.37 µM (inactive) | 3.59 µM (inactive) | 2.22 µM (inactive)
CCOC(=O)NN(C(=O)OCC)c1c(C)cc(C)cc1C | > 100 µM (inactive) | > 100 µM (inactive) | > 100 µM (inactive) | > 100 µM (inactive) | > 100 µM (inactive) | > 100 µM (inactive) | > 100 µM (inactive) | > 100 µM (inactive) | > 100 µM (inactive) | > 100 µM (inactive) | > 100 µM (inactive) | > 100 µM (inactive) |  | > 100 µM (inactive) | > 100 µM (inactive) | 98.9 µM (inactive) | > 100 µM (inactive) | > 100 µM (inactive) | > 100 µM (inactive) | > 100 µM (inactive)
COC1=CC(=O)c2c(cc(COP(=O)(N(C)CCBr)N(C)CCBr)n2C)C1=O | 0.0413 µM (active) | 0.55 µM (active) | 1.38 µM (inactive) | 2.16 µM (inactive) | 4.04 µM (inactive) | 0.385 µM (active) | < 0.0235 µM (active) | 0.281 µM (active) | 0.187 µM (active) | 0.918 µM (active) | < 0.0204 µM (active) | 0.414 µM (active) | < 0.0108 µM (active) | 0.0543 µM (active) | < 0.0182 µM (active) |  | < 0.01 µM (active) | 0.906 µM (active) | 5.32 µM (inactive) | 0.0356 µM (active)
CCCN(CCCCC(NC(C)=O)C(=O)NCc1ccccc1)C(=O)N(CCCl)N=O (stereo not drawn) | > 96.6 µM (inactive) | 78.9 µM (inactive) | 75.7 µM (inactive) | > 100 µM (inactive) | > 100 µM (inactive) | 98.2 µM (inactive) | 27.2 µM (inactive) | > 82.2 µM (inactive) | > 97.1 µM (inactive) | > 100 µM (inactive) | 2.33 µM (inactive) | 11.7 µM (inactive) | 25.8 µM (inactive) | 22.3 µM (inactive) | 40 µM (inactive) | 84.1 µM (inactive) | 19.3 µM (inactive) | > 100 µM (inactive) | > 100 µM (inactive) | 54.6 µM (inactive)
CCOC(=O)CN1C(=O)C(=O)N(c2ccc(OC)c3ccccc23)C1=O | > 100 µM (inactive) | > 100 µM (inactive) | > 100 µM (inactive) | > 100 µM (inactive) | > 100 µM (inactive) | > 100 µM (inactive) | > 100 µM (inactive) | > 100 µM (inactive) | > 100 µM (inactive) | > 100 µM (inactive) | > 100 µM (inactive) | > 100 µM (inactive) | > 100 µM (inactive) | > 100 µM (inactive) | > 100 µM (inactive) | 34.6 µM (inactive) | > 100 µM (inactive) | > 100 µM (inactive) | > 100 µM (inactive) | > 100 µM (inactive)
N#Cc1nc(C#N)n(S(=O)(=O)c2ccccc2)c1NS(=O)(=O)c1ccccc1 | > 100 µM (inactive) | > 100 µM (inactive) | > 100 µM (inactive) | > 100 µM (inactive) | > 100 µM (inactive) | > 100 µM (inactive) | > 100 µM (inactive) | > 100 µM (inactive) | > 100 µM (inactive) | > 100 µM (inactive) | > 100 µM (inactive) | > 100 µM (inactive) | > 100 µM (inactive) | > 100 µM (inactive) | > 100 µM (inactive) | 27 µM (inactive) | > 38.1 µM (inactive) | > 100 µM (inactive) | > 100 µM (inactive) | > 100 µM (inactive)
Oc1ccc(-c2nc3cc(F)ccc3s2)cc1 | 23.3 µM (inactive) | 5.22 µM (inactive) | 20 µM (inactive) | 19.2 µM (inactive) | 20.5 µM (inactive) | 24 µM (inactive) | 21.8 µM (inactive) | 15.3 µM (inactive) | 41.5 µM (inactive) | 25.7 µM (inactive) | 28.6 µM (inactive) | 17.5 µM (inactive) | 20.3 µM (inactive) | 21.7 µM (inactive) | 1.14 µM (inactive) | 19.3 µM (inactive) | 2.38 µM (inactive) | 16.5 µM (inactive) | 13.6 µM (inactive) | 43.8 µM (inactive)
